The numbers were not newly measured in patent US20140004176A1, “DELIVERY OF TREATMENTS TRANSDERMALLY FOR FUNGAL INFECTIONS AND OTHER INDICATIONS” (Strategic Science & Techologies, priority 2010, published 2014), which cites them from elsewhere.

Take `C[C@@H](c1ncncc1F)[C@](O)(Cn1cncn1)c1ccc(F)cc1F` [voriconazole]: the pKa is recorded as 1.76.

For orientation: pKa means the pH at which an ionisable group is half protonated.
